ChEMBL document CHEMBL2086259, “13,28-Epoxy triterpenoid saponins from Ardisia japonica selectively inhibit proliferation of liver cancer cells without affecting normal liver cells” (Bioorg Med Chem Lett, 2012)
pIC50: −log10 of the molar value.

Columns and labels:
[1] = Cytotoxicity against human HL-7702 cells after 72 hrs by MTT assay; type: cell-based; conditions: L02, 72 h
HepG2 = test: Cytotoxicity against human HepG2 cells after 72 hrs by MTT assay; type: functional, cell-based; conditions: HepG2, 72 h
Bel-7402 = test: Cytotoxicity against human Bel7402 cells after 72 hrs by MTT assay; type: functional, cell-based; conditions: Bel-7402, 72 h

Row | SMILES | pIC50 [1] | pIC50 (HepG2) | pIC50 (Bel-7402)
1 | C[C@@H]1O[C@@H](O[C@H]2[C@H](O[C@H]3CO[C@@H](O[C@H]4CC[C@]5(C)[C@H]6CC[C@]78OC(=O)[C@@]9(CC[C@](C)(CO)C[C@H]97)[C@H](O)C[C@@]8(C)[C@]6(C)CC[C@H]5C4(C)C)[C@H](O[C@@H]4O[C@H](CO)[C@@H](O)[C@H](O)[C@H]4O)[C@H]3O)O[C@H](CO)[C@@H](O)[C@@H]2O)[C@H](O)[C@H](O)[C@H]1O [ARDISIANOSIDE I] | < 4.00 | < 4.00 | < 4.00
2 | C[C@@H]1O[C@@H](O[C@H]2[C@H](O[C@H]3CO[C@@H](O[C@H]4CC[C@]5(C)[C@H]6CC[C@]78OC[C@@]9(CC[C@](C)(C(=O)O)C[C@H]97)C(=O)C[C@@]8(C)[C@]6(C)CC[C@H]5C4(C)C)[C@H](O[C@@H]4O[C@H](CO)[C@@H](O)[C@H](O)[C@H]4O)[C@H]3O)O[C@H](CO)[C@@H](O)[C@@H]2O)[C@H](O)[C@H](O)[C@H]1O | < 4.00 | < 4.00 | < 4.00
3 | CC1(C)CC[C@]23C(=O)O[C@@]4(CC[C@@H]5[C@@]6(C)CC[C@H](O[C@@H]7OC[C@H](O[C@@H]8O[C@H](CO)[C@@H](O)[C@H](O[C@@H]9O[C@H](CO)[C@@H](O[C@@H]%10O[C@H](CO)[C@@H](O)[C@H](O)[C@H]%10O)[C@H](O[C@@H]%10O[C@H](CO)[C@@H](O)[C@H](O)[C@H]%10O)[C@H]9O)[C@H]8O[C@@H]8OC[C@@H](O)[C@H](O)[C@H]8O)[C@H](O)[C@H]7O[C@@H]7O[C@H](CO)[C@@H](O)[C@H](O)[C@H]7O)C(C)(C)[C@@H]6CC[C@@]5(C)[C@]4(C)C[C@H]2O)[C@@H]3C1 [ARDISIANOSIDE H] | < 4.00 | < 4.00 | < 4.00
4 | C[C@@H]1O[C@@H](O[C@H]2[C@H](O[C@H]3CO[C@@H](O[C@H]4CC[C@]5(C)[C@H]6CC[C@]78OC[C@@]9(CC[C@](C)(CO)C[C@H]97)[C@H](O)C[C@@]8(C)[C@]6(C)CC[C@H]5C4(C)C)[C@H](O[C@@H]4O[C@H](CO)[C@@H](O)[C@H](O)[C@H]4O)[C@H]3O)O[C@H](CO)[C@@H](O)[C@@H]2O)[C@H](O)[C@H](O)[C@H]1O [ARDISICRENOSIDE A] | < 4.00 | < 4.00 | < 4.00
5 | C[C@@H]1O[C@@H](O[C@H]2[C@H](O[C@H]3CO[C@@H](O[C@H]4CC[C@]5(C)[C@H]6CC[C@]78OC[C@@]9(CC[C@](C)(C=O)C[C@H]97)[C@H](O)C[C@@]8(C)[C@]6(C)CC[C@H]5C4(C)C)[C@H](O)[C@H]3O)O[C@H](CO)[C@@H](O)[C@@H]2O)[C@H](O)[C@H](O)[C@H]1O [CYCLAMIRETIN A] | < 4.00 | < 4.00 | < 4.00
6 | C[C@@H]1O[C@@H](O[C@H]2[C@H](O[C@H]3CO[C@@H](O[C@H]4CC[C@]5(C)[C@H]6CC[C@]78OC[C@@]9(CC[C@](C)(C=O)C[C@H]97)[C@H](O)C[C@@]8(C)[C@]6(C)CC[C@H]5C4(C)C)[C@H](O[C@@H]4O[C@H](CO)[C@@H](O)[C@H](O)[C@H]4O)[C@H]3O)O[C@H](CO)[C@@H](O)[C@@H]2O)[C@H](O)[C@H](O)[C@H]1O [ARDISIACRISPIN B] | < 4.00 | 4.68 | 5.35
7 | CC1(C)[C@@H](O[C@@H]2OC[C@H](O[C@@H]3O[C@H](CO)[C@@H](O)[C@H](O)[C@H]3O[C@@H]3OC[C@@H](O)[C@H](O)[C@H]3O)[C@H](O)[C@H]2O)CC[C@]2(C)[C@H]3CC[C@]45OC[C@@]6(CC[C@](C)(C=O)C[C@H]64)[C@H](O)C[C@@]5(C)[C@]3(C)CC[C@@H]12 [PRIMULANIN] | < 4.00 | < 4.00 | 5.39
8 | COC(OC)[C@@]1(C)CC[C@]23CO[C@@]4(CC[C@@H]5[C@@]6(C)CC[C@H](O[C@@H]7OC[C@H](O[C@@H]8O[C@H](CO)[C@@H](O)[C@H](O)[C@H]8O[C@@H]8O[C@@H](C)[C@H](O)[C@@H](O)[C@H]8O)[C@H](O)[C@H]7O)C(C)(C)[C@@H]6CC[C@@]5(C)[C@]4(C)C[C@H]2O)[C@@H]3C1 | < 4.00 | < 4.00 | < 4.00
9 | C[C@@H]1O[C@@H](O[C@H]2[C@H](O[C@H]3CO[C@@H](O[C@H]4CC[C@]5(C)[C@H]6CC=C7[C@@H]8C[C@@](C)(C(=O)O)CC[C@]8(CO)[C@H](O)C[C@@]7(C)[C@]6(C)CC[C@H]5C4(C)C)[C@H](O[C@@H]4O[C@H](CO)[C@@H](O)[C@H](O)[C@H]4O)[C@H]3O)O[C@H](CO)[C@@H](O)[C@@H]2O)[C@H](O)[C@H](O)[C@H]1O | < 4.00 | < 4.00 | < 4.00
10 | C[C@@H]1O[C@@H](O[C@H]2[C@H](O[C@H]3CO[C@@H](O[C@H]4CC[C@]5(C)[C@H]6CC[C@]78OC[C@@]9(CC[C@](C)(C=O)C[C@H]97)C(=O)C[C@@]8(C)[C@]6(C)CC[C@H]5C4(C)C)[C@H](O)[C@H]3O)O[C@H](CO)[C@@H](O)[C@@H]2O)[C@H](O)[C@H](O)[C@H]1O [ARDISIAMAMILLOSIDE H] | < 4.00 | < 4.00 | < 4.00
11 | CC1(C)CC[C@]23CO[C@@]4(CC[C@@H]5[C@@]6(C)CC[C@H](O[C@@H]7OC[C@H](O[C@@H]8O[C@H](CO)[C@@H](O)[C@H](O[C@@H]9O[C@H](CO)[C@@H](O[C@@H]%10O[C@H](CO)[C@@H](O)[C@H](O)[C@H]%10O)[C@H](O[C@@H]%10O[C@H](CO)[C@@H](O)[C@H](O)[C@H]%10O)[C@H]9O)[C@H]8O[C@@H]8OC[C@@H](O)[C@H](O)[C@H]8O)[C@H](O)[C@H]7O[C@@H]7O[C@H](CO)[C@@H](O)[C@H](O)[C@H]7O)C(C)(C)[C@@H]6CC[C@@]5(C)[C@]4(C)C[C@H]2O)[C@@H]3C1 [ARDISIANOSIDES A] | < 4.00 | 5.42 | 5.86
12 | CC1(C)CC[C@]23CO[C@@]4(CC[C@@H]5[C@@]6(C)CC[C@H](O[C@@H]7OC[C@H](O[C@@H]8O[C@H](CO)[C@@H](O)[C@H](O)[C@H]8O[C@@H]8OC[C@@H](O)[C@H](O)[C@H]8O)[C@H](O)[C@H]7O)C(C)(C)[C@@H]6CC[C@@]5(C)[C@]4(C)C[C@H]2O)[C@@H]3C1 [ARDISIANOSIDE D] | < 4.00 | 4.51 | 4.83
13 | CC1(C)CC[C@]23CO[C@@]4(CC[C@@H]5[C@@]6(C)CC[C@H](O[C@@H]7OC[C@H](O[C@@H]8O[C@H](CO)[C@@H](O)[C@H](O)[C@H]8O)[C@H](O)[C@H]7O[C@@H]7O[C@H](CO)[C@@H](O)[C@H](O)[C@H]7O)C(C)(C)[C@@H]6CC[C@@]5(C)[C@]4(C)C[C@H]2O)[C@@H]3C1 | < 4.00 | 4.84 | 5.38
14 | C[C@@H]1O[C@@H](O[C@H]2[C@H](O[C@H]3CO[C@@H](O[C@H]4CC[C@]5(C)[C@H]6CC[C@]78OC[C@@]9(CCC(C)(C)C[C@H]97)[C@H](O)C[C@@]8(C)[C@]6(C)CC[C@H]5C4(C)C)[C@H](O)[C@H]3O)O[C@H](CO)[C@@H](O)[C@@H]2O)[C@H](O)[C@H](O)[C@H]1O [ARDISIANOSIDE C] | < 4.00 | 4.87 | 5.38
15 | C[C@@H]1O[C@@H](O[C@H]2[C@H](O[C@H]3CO[C@@H](O[C@H]4CC[C@]5(C)[C@H]6CC[C@]78OC[C@@]9(CC[C@](C)(O)C[C@H]97)[C@H](O)C[C@@]8(C)[C@]6(C)CC[C@H]5C4(C)C)[C@H](O[C@@H]4O[C@H](CO)[C@@H](O)[C@H](O)[C@H]4O)[C@H]3O)O[C@H](CO)[C@@H](O)[C@@H]2O)[C@H](O)[C@H](O)[C@H]1O [ARDISIANOSIDE G] | < 4.00 | < 4.00 | < 4.00
16 | C[C@@H]1O[C@@H](O[C@H]2[C@H](O[C@H]3CO[C@@H](O[C@H]4CC[C@]5(C)[C@H]6CC=C7[C@@H]8C[C@@](C)(CO)CC[C@]8(CO)[C@H](O)C[C@@]7(C)[C@]6(C)CC[C@H]5C4(C)C)[C@H](O[C@@H]4O[C@H](CO)[C@@H](O)[C@H](O)[C@H]4O)[C@H]3O)O[C@H](CO)[C@@H](O)[C@@H]2O)[C@H](O)[C@H](O)[C@H]1O [ARDISIAMAMILLOSEDE C] | < 4.00 | < 4.00 | < 4.00
17 | CC1(C)[C@@H](O[C@@H]2OC[C@H](O[C@@H]3O[C@H](CO)[C@@H](O)[C@H](O[C@@H]4O[C@H](CO)[C@@H](O)[C@H](O)[C@H]4O)[C@H]3O[C@@H]3OC[C@@H](O)[C@H](O)[C@H]3O)[C@H](O)[C@H]2O[C@@H]2O[C@H](CO)[C@@H](O)[C@H](O)[C@H]2O)CC[C@]2(C)[C@H]3CC[C@]45OC[C@@]6(CC[C@](C)(C=O)C[C@H]64)[C@H](O)C[C@@]5(C)[C@]3(C)CC[C@@H]12 [CYCLAMIN] | < 4.00 | 4.91 | 5.41
18 | C[C@@H]1O[C@@H](O[C@H]2[C@H](O[C@H]3CO[C@@H](O[C@H]4CC[C@]5(C)[C@H]6CC=C7[C@@H]8C[C@@](C)(CO)CC[C@]8(CO)[C@@H]8O[C@@H]8[C@@]7(C)[C@]6(C)CC[C@H]5C4(C)C)[C@H](O[C@@H]4O[C@H](CO)[C@@H](O)[C@H](O)[C@H]4O)[C@H]3O)O[C@H](CO)[C@@H](O)[C@@H]2O)[C@H](O)[C@H](O)[C@H]1O [ARDISIANOSIDE K] | < 4.00 | < 4.00 | < 4.00
